How the values were obtained:
[1] = Morphology and particle size by thermal field scanning electron microscopy (FE SEM); type: physicochemical; settings: fused primary particles formed during crystallisation, FIG. 2
Source text: The morphology of crystalline mupirocin calcium dihydrate produced according to the procedure of Example 2 was examined by thermal field scanning electron microscopy (FE SEM). An FE SEM microscope, model JSM-7000F, manufactured by Jeol Ltd., Japan, was used in the inspection of samples. The FE SEM microscope was coupled with an EDS/INCA 350 (energy dispersive X-ray analyzer) manufactured by Oxford Instruments Ltd. The samples inspected by FE SEM were not coated with a conductive layer. […] Calcium mupirocin dihydrate crystallize in a columnar particle shape having a mean particle size from about 100 to about 700 nm. During the crystallisation process primary particles, i.e., crystals, are fused to form agglomerates (FIG. 2) having a mean particle size of about 10 μm. During the drying process, the agglomerates adhere to each other, forming aggregates having a mean particle size from about 30 μm to about 400 μm.

[2] = amorphous form, quoted description; cited from earlier work
[3] = amorphous form, quoted description; cited from earlier work; remark: listed apart in the source

mean particle size of agglomerates [1]	Structure (SMILES)	water solubility [2]	thermal stability [3]
about 10 μm	C/C(=C\C(=O)OCCCCCCCCC(=O)O)C[C@@H]1OC[C@H](C[C@@H]2O[C@H]2[C@@H](C)[C@H](C)O)[C@@H](O)[C@H]1O [Calcium mupirocin dihydrate, mupirocin calcium dihydrate]	–	–
–	C/C(=C\C(=O)OCCCCCCCCC(=O)[O-])C[C@@H]1OC[C@H](C[C@@H]2O[C@H]2[C@@H](C)[C@H](C)O)[C@@H](O)[C@H]1O.C/C(=C\C(=O)OCCCCCCCCC(=O)[O-])C[C@@H]1OC[C@H](C[C@@H]2O[C@H]2[C@@H](C)[C@H](C)O)[C@@H](O)[C@H]1O.O.O.[Ca+2] [amorphous calcium salt of mupirocin]	sparingly water soluble	poor thermal stability

Source: patent US20110015413A1, “PROCESS FOR PREPARING CRYSTALLINE CALCIUM MUPIROCIN DIHYDRATE” (priority 2008, published 2011)
